From patent publication US9938292B2 (GUANGDONG ZHONGSHENG PHARMACEUTICAL CO., LTD, priority 2014, dated 2018)

System: Hedgehog signaling pathway
Experiment: Gli-Luc luciferase reporter gene assay in C3H10T1/2/Gli-Luc cells under Shh-N stimulation
Format: cell-based
Conditions: Mus musculus, C3H 10T1/2, 24 h, luciferase RLU, read-out: biological activity: IC50 of the inhibitory activities of compounds on the hedgehog pathway
From the text: The luciferase (Gli-Luc) reporter gene with Gli response element was transfected into C3H10T1/2 cells, under Shh-N stimulation conditions, determine the Hedgehog signaling pathway inhibitors through the detection of gene expression in cell activity report. In this study, we evaluated the inhibitory effects of compounds on Hedgehog signaling pathway in the IC50 value of the compound as an index.
Cell lines: C3H10T1/2/Gli-Luc stable cell line • C3H10T1/2/Gli-Luc Cell culture medium (DMEM/high glucose HyClone, #SH30022.01B; 10% serum Hyclone, #SV30087; 0.4% Hygromycin B Roche, #13398200) • 0.25% Trypsin-EDTA (Gibco, #25200)
Shh-N, HEK293/SHH-N stable cell culture supernatant
Inoculate the logarithmic growth phase of C3H10T1/2/Gli-Luc cells into a 96-well culture plate with 20000 cells per well, cells were cultured in a 37° C., 5% CO2 incubator overnight. The next day, the compounds were diluted in the following ways: the positive compound GDC0449 (1 mM) and the compounds (1 mM) to be measured were serially diluted to 7 concentrations by DMSO according to 1:3 and 1:10 respectively, the eighth is for DMSO control, and then diluted with fresh medium 100 times. The medium of the cells cultured overnight was removed, 80 μL fresh culture medium was added per well, then 20 μL gradiently diluted positive compound and compounds to be measured and 100 μL 30 nM Shh-N containing conditioned medium were added, each concentration repeated 2 wells, at the same time, positive and negative reference well were set (i.e. Shh Ctrl: 80 μL fresh medium+20 μL 1% DMSO containing medium+100 μL 30 nM Shh-N containing conditioned medium; Unstimulated Ctrl: 180 μL fresh medium+20 μL 1% DMSO containing medium), cells were cultured in the incubator for further 24 h.
Intracellular luciferase activity detection: take the cells out of 96-well plate, discard the culture medium, the cells were washed with PBS twice, then each well added with 20 μL lysate (Promega E1531), oscillate pyrolysis at room temperature for 30 min. 5 μL cell lysates were transferred to 384-well plate (Greiner 781074), then each well was added with 25 μL luciferase reaction liquid (Promega E1501), after rapid mixed, immediately placed into the VarioSkan Flash multi-function reading instrument to read the relative light units (RLU) value.
Data analysis: using Prism's GraphPad 5 for data analysis. RLU reading to the logarithmic mapping of compound concentration on behalf of luciferase activity, and then curve fitting using the following equation to give IC50 value, Y (RLU)=minimum+(maximum−minimum)/(1+10^(log of compound concentration−Log IC50)).

Compound | IC50 [nM]
COc1c(N2CCN(c3ccc(C(C)(C)O)c(C(F)(F)F)n3)CC2)cnc2c(-c3ccc(C#N)cc3)cccc12 [Embodiment 222] | ≤ 50
CC(C)(O)c1ccc(N2CC3(C2)CN(c2cnc4c(-c5ccc(C#N)cc5)cccc4c2C2CC2)C3)nc1 [Embodiment 255, 4-(4-cyclopropyl-3-(6-(5-(2-hydroxypropan-2-yl)pyridin-2-yl)-2,6-diazaspiro[3.3]heptan-2-yl)quinolin-8-yl)benzonitrile] | 100 to 500
COc1c(-c2ccc(N3C[C@@H](C)O[C@@H](C)C3)cc2)cnc2c(-c3cnn(C)c3)cccc12 [Embodiment 108] | 100 to 500
Cc1cn(-c2ccc(N3C[C@@H](C)O[C@@H](C)C3)cc2)c(=O)c2cccc(-c3ccccn3)c12 [Embodiment 53] | 500 to 1000
COc1cc(-c2ccc(N3C[C@@H](C)O[C@@H](C)C3)cc2)nc2cccc(-c3ccc(C#N)cc3)c12 [Embodiment 142, 4-(2-(4-((2R,6S)-2,6-dimethylmorpholino)phenyl)-4-methoxyquinolin-5-yl) benzonitrile] | 500 to 1000
CC(C)(O)c1ccc(N2CCN(c3cnc4c(-c5ccc(C#N)cc5)cccc4c3C(F)(F)F)CC2)nc1 [Embodiment 218, 4-(3-(4-(5-(2-hydroxypropan-2-yl)pyridin-2-yl)piperazin-1-yl)-4-(trifluoromethyl)quinolin-8-yl)benzonitrile] | ≤ 50
Cc1cn(-c2ccc(N3CCOC(CN(C)C)C3)cc2)c(=O)c2cccc(-c3ccc(C#N)cc3)c12 (stereo not shown) [Embodiment 9] | 1000 to 5000
COc1c(-c2ccc(N3C[C@@H](C)N(S(C)(=O)=O)[C@@H](C)C3)nc2)cnc2c(-c3ccc(C#N)cc3)cccc12 [Embodiment 188, 4-(3-(6-(4-methylsulfonyl-3,5-dimethylpiperazin-1-yl)pyridin-3-yl)-4-methoxyquinolin-8-yl)benzonitrile] | ≤ 50
COc1c(-c2ccc(N3C[C@@H](C)O[C@@H](C)C3)cc2)cnc2c(-c3ccc(C)nc3)cccc12 [Embodiment 94] | ≤ 50
CCC(=O)N1[C@H](C)CN(c2ccc(-c3nnc4c(-c5ccc(C#N)cc5)cccc4c3OC)cn2)C[C@@H]1C [Embodiment 151, 4-(3-(6-(3,5-dimethyl-4-propionylpiperazin-1-yl)pyridin-3-yl)-4-methoxycinnolin-8-yl)benzonitrile] | ≤ 50
COc1c(-c2ccc(N3C[C@@H](C)N(c4nccs4)[C@@H](C)C3)nc2)cnc2c(-c3ccc(C#N)cc3)cccc12 [Embodiment 206, 4-(3-(6-((3S,5R)-3,5-dimethyl-4-(thiazol-2-yl)piperazin-1-yl)pyridin-3-yl)-4-methoxyquinolin-8-yl)benzonitrile] | ≤ 50
Cc1cn(-c2ccc(N3C[C@@H](C)O[C@@H](C)C3)cc2)c(=O)c2cccc(-c3ccc(Cl)cc3)c12 [Embodiment 51] | 100 to 500
COc1c(N2CCC(N3CC(C)OC(C)C3=O)CC2)cnc2c(-c3ccc(C#N)cc3)cccc12 (stereo not shown) [Embodiment 235, 4-(3-(4-(2,6-dimethyl-3-oxo-morpholino-4-yl)piperidin-1-yl)-4-methoxyquinolin-8-yl) benzonitrile] | ≤ 50
CC(C)(O)c1ccc(N2CCC3(CC2)CCN(c2cnc4c(-c5ccc(C#N)cc5)cccc4c2C2CC2)CC3)nc1 [Embodiment 256, 4-(4-cyclopropyl-3-(9-(5-(2-hydroxypropan-2-yl)pyridin-2-yl)-3,9-diazaspiro[5.5]undecan-3-yl)quinolin-8-yl)benzonitrile] | 100 to 500
C[C@@H]1CN(c2ccc(-n3ccc4c(-c5ccc(C(F)(F)F)cc5)cccc4c3=O)cn2)C[C@H](C)O1 [Embodiment 71] | 1000 to 5000
Cc1cn(-c2ccc(N3C[C@@H](C)O[C@@H](C)C3)cc2)c(=O)c2cccc(-c3ccc(C4CC4)cc3)c12 [Embodiment 69, 5-(4-cyclopropylphenyl)-2-(4-((2R,6S)-2,6-dimethylmorpholino)phenyl)-4-methylisoquinolin-1(2H)-one] | 500 to 1000
COc1c(-c2ccc(N3C[C@@H](C)O[C@@H](C)C3)nc2)cnc2c(-c3ccc(C(C)C)nc3Cl)cccc12 [Embodiment 164] | 100 to 500

Compound | IC50 [nM]
C[C@@H]1CN(c2ccc(-c3cnc4c(-c5ccc(C#N)cc5)cccc4c3C3CC3)c(C(=O)O)n2)C[C@H](C)O1 [Embodiment 239, 3-(8-(4-cyanophenyl)-4-cyclopropylquinolin-3-yl)-6-(2,6-dimethylmorpholino-4-yl)pyridin-2-carboxylic acid] | 100 to 500
C[C@@H]1CN(c2ccc(-c3cnc4c(-c5ccc(C#N)cc5)cccc4c3N3CCC3)cc2)C[C@H](C)O1 [Embodiment 126, 4-(4-(azetidin-1-yl)-3-(4-((2S,6R)-2,6-dimethylmorpholino)phenyl)quinolin-8-yl) benzonitrile] | 100 to 500
COc1c(-c2ccc(N3C[C@@H](C)O[C@@H](C)C3)cc2)cnc2c(-c3ccc(C#N)c(F)c3)cccc12 [Embodiment 102] | 50 to 100
Cc1cn(-c2ccc(NCCN3C[C@@H](C)O[C@@H](C)C3)cc2)c(=O)c2cccc(-c3ccc(C#N)cc3)c12 [Embodiment 12] | 500 to 1000
COC(=O)N1[C@H](C)CN(c2ccc(-c3cnc4c(-c5ccc(C#N)cc5)cccc4c3OC)cc2)C[C@@H]1C [Embodiment 182] | ≤ 50
Cc1cn(-c2ccc(N3CC4CCC(C3)O4)cc2)c(=O)c2cccc(-c3ccc(C#N)cc3)c12 [Embodiment 7] | 500 to 1000
CNC(=O)c1ccc(-c2cccc3c(OC)c(-c4ccc(N5C[C@@H](C)O[C@@H](C)C5)cc4)cnc23)cn1 [Embodiment 101] | 100 to 500
Cc1cn(-c2ccc(N3CC(C)N(C(=O)OC(C)(C)C)C(C)C3)cc2)c(=O)c2cccc(-c3ccc(C#N)cc3)c12 (stereo not shown) [Embodiment 16] | 100 to 500
C[C@@H]1CN(c2ccc(-c3cnc4c(-c5ccc(C#N)cc5)cccc4c3)cc2)C[C@H](C)O1 [Embodiment 127, 4-(3-(4-((2S,6R)-2,6-dimethylmorpholino)phenyl)quinolin-8-yl)benzonitrile] | 100 to 500
C[C@@H]1CN(c2ccc(-c3cnc4c(-c5ccc(C#N)cc5)cccc4c3C3=CCCC3)cn2)C[C@H](C)O1 [Embodiment 260] | 100 to 500
Cc1cn(-c2ccc(N3C[C@@H](C)O[C@@H](C)C3)cc2)c(=O)c2cccc(-c3ccc(Cl)s3)c12 [Embodiment 45] | 1000 to 5000
COc1c(N2CCN(c3cnc(C(C)(C)O)cn3)C(C)C2)cnc2c(-c3ccc(C#N)cc3)cccc12 (stereo not shown) [Embodiment 225] | ≤ 50
Cc1cn(-c2ccc(N3C[C@@H](C)O[C@@H](C)C3)cc2)c(=O)c2cccc(-c3cccc(C#N)c3)c12 [Embodiment 63] | 1000 to 5000
COc1c(-c2ccc(N3C[C@@H](C)O[C@@H](C)C3)cc2)cnc2c(-c3ccc(C#N)cc3)ccc(F)c12 [Embodiment 138] | ≤ 50
Cc1cn(-c2ccc(N3CC(C)N(C(=O)C(C)C)C(C)C3)cc2)c(=O)c2cccc(-c3ccc(C#N)cc3)c12 (stereo not shown) [Embodiment 24] | 50 to 100
Cc1cn(-c2ccc(N3C[C@@H](C)O[C@@H](C)C3)nc2)c(=O)c2cccc(-c3ccc(OC(F)(F)F)cc3)c12 [Embodiment 68] | 1000 to 5000
COc1c(C2(O)CCN(c3ccc(C(C)(C)O)cn3)CC2)cnc2c(-c3ccc(C#N)cc3)cccc12 [Embodiment 240, 4-(3-(4-hydroxy-5′-(1-hydroxy-1-methyl-ethyl)-3,4,5,6-tetrahydro-2H-[1,2′]bipyridyl-4-yl)4-methoxyquinolin-8-yl)benzonitrile] | 100 to 500
